Reference: ChEMBL document CHEMBL5465560, “Selectivity Literature for EUbOPEN Chemogenomic Library” (2024)

Tests used:
[1] = molecular target: T1, Serine/threonine-protein kinase BRSK1 (Homo sapiens) (UniProt Q8TDC3); test: Selectivity interaction (KinomeScan (DiscoverX)) EUB0001079a BRSK1; conditions: at 1 µM
T1 sequence (whole entry): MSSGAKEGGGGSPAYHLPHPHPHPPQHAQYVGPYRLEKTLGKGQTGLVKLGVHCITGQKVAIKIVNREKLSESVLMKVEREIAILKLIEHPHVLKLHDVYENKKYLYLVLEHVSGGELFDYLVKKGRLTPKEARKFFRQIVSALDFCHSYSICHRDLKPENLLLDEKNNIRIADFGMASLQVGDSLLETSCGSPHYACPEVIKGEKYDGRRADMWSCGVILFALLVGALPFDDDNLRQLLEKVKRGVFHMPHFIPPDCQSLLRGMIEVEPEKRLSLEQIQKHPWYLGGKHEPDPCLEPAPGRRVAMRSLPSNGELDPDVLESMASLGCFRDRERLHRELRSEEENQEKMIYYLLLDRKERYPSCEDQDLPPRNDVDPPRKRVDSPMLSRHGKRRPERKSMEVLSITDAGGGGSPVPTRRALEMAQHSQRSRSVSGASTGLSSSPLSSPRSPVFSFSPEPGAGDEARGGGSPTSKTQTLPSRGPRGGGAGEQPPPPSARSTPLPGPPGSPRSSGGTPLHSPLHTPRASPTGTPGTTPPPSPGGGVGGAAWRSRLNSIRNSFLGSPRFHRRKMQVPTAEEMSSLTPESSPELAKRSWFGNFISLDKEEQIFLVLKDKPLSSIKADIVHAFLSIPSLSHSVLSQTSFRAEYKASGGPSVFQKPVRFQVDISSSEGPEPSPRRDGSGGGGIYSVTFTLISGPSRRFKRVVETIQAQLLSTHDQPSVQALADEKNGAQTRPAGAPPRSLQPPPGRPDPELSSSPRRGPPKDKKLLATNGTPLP

[2] = molecular target: Phosphatidylinositol 4,5-bisphosphate 3-kinase catalytic subunit beta isoform (Homo sapiens) (UniProt P42338); test: Selectivity interaction (Adapta Assay) EUB0001632a PIK3CB; conditions: at 10 µM
[3] = molecular target: T2, Bromodomain and PHD finger-containing protein 3 (Homo sapiens) (UniProt Q9ULD4); test: Selectivity interaction (PWWP, WD40, and Tudor domain panel (DSLS measurements, literature)) EUB0000270b BRPF3
T2 sequence (whole entry): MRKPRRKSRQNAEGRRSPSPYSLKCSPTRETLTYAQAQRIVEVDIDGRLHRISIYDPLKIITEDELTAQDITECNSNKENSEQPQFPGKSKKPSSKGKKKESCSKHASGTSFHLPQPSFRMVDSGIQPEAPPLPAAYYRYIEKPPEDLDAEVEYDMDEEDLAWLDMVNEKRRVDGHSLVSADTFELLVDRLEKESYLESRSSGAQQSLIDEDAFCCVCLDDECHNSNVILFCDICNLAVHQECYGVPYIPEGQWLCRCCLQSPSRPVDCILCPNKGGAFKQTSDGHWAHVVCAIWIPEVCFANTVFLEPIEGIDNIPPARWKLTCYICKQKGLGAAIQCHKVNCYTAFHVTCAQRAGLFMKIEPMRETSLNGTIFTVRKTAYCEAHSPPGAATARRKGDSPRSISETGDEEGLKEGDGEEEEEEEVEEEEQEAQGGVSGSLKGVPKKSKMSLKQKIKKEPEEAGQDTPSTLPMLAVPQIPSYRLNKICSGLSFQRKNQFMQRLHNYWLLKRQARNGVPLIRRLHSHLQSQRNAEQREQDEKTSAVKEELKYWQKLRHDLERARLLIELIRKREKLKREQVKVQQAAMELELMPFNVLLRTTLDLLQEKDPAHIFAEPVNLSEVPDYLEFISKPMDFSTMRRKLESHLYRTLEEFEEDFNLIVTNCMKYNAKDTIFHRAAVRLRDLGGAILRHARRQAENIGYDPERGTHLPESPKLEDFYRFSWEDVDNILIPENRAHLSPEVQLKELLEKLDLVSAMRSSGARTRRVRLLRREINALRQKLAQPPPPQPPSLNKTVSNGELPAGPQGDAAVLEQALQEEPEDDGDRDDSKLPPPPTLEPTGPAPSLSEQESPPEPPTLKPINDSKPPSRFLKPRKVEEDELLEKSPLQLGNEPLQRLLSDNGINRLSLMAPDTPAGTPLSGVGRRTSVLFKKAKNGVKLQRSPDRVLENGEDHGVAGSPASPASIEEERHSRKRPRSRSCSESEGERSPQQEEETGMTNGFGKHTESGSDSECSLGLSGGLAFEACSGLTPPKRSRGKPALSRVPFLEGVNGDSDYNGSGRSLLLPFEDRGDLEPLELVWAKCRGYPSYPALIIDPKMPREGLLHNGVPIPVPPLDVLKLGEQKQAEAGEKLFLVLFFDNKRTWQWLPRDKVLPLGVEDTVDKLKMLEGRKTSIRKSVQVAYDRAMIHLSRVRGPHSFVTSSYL

[4] = molecular target: T3, cGMP-dependent protein kinase 2 (Homo sapiens) (UniProt Q13237); test: Selectivity interaction (SelectScreen profiling (Invitrogen)) EUB0000607a PRKG2; conditions: at 2 µM
T3 sequence (whole entry): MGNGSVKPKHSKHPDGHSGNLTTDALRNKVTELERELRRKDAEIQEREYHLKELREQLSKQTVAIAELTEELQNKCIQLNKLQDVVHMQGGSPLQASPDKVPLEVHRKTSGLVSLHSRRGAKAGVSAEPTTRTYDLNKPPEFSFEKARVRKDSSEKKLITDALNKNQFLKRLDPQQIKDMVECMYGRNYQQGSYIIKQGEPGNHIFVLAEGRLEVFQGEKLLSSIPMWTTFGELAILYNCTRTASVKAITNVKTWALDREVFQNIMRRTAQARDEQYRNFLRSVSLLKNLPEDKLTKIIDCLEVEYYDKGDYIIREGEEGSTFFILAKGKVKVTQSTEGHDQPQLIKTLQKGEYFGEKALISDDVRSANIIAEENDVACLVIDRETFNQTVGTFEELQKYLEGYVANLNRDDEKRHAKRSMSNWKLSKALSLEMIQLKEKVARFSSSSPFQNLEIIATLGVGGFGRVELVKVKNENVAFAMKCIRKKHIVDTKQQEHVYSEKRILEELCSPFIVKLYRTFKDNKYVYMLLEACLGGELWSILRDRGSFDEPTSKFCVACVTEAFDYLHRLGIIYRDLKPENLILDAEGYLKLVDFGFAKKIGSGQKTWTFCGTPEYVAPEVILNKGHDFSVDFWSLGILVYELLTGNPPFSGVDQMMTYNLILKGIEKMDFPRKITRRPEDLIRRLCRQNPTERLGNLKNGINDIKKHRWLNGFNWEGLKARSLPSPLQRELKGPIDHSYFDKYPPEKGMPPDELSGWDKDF

[5] = molecular target: Hepatocyte growth factor receptor (Homo sapiens, UniProt P08581); test: (§1) Selectivity interaction (Ambit KINOMEscan and KiNATiv profiling in Jurkat cells) EUB0000090b MET; type: cell-based; conditions: at 1 µM
[6] = system: Hepatocyte growth factor receptor (Homo sapiens), P08581 [M1250T]; test: as §1; type: cell-based; conditions: at 1 µM
[7] = system: Hepatocyte growth factor receptor (Homo sapiens), P08581 [Y1235D]; test: as §1; type: cell-based; conditions: at 1 µM
Hepatocyte growth factor receptor (Homo sapiens), P08581 [Y1235D], sequence (P08581 whole entry Y1235D): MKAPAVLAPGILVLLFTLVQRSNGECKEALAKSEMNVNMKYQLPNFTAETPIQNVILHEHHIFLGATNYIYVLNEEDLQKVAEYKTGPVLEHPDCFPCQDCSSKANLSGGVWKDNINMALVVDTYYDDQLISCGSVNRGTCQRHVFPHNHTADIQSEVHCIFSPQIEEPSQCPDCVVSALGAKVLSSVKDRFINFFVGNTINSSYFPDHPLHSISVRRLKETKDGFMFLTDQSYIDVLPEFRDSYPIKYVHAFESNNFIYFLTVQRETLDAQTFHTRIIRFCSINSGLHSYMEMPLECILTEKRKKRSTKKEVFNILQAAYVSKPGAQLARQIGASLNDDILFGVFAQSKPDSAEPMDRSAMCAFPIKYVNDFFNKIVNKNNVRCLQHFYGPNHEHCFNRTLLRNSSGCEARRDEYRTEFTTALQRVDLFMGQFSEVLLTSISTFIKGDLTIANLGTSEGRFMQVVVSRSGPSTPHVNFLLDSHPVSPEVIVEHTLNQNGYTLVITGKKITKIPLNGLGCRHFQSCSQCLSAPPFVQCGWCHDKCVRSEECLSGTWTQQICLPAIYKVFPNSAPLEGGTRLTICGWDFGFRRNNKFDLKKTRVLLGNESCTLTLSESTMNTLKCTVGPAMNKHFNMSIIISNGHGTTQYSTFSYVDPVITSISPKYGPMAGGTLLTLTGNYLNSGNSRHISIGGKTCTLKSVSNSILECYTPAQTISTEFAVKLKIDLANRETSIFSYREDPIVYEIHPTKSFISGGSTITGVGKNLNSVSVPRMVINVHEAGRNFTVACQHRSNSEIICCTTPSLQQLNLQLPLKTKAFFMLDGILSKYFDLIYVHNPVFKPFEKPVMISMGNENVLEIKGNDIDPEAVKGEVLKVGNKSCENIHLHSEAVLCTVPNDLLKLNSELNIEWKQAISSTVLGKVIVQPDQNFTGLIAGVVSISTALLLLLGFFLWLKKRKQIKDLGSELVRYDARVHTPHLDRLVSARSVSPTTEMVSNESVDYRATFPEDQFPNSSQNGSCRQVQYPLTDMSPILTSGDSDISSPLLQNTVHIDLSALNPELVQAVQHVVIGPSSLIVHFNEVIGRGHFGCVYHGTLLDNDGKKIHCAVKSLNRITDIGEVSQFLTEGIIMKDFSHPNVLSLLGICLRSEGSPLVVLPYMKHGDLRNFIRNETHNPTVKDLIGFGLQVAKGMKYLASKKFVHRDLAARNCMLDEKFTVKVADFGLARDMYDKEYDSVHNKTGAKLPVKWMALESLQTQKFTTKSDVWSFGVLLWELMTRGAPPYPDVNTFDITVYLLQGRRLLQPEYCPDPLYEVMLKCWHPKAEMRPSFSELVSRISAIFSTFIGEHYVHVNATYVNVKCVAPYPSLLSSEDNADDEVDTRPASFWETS

Hepatocyte growth factor receptor (Homo sapiens), P08581 [M1250T], sequence (P08581 whole entry M1250T): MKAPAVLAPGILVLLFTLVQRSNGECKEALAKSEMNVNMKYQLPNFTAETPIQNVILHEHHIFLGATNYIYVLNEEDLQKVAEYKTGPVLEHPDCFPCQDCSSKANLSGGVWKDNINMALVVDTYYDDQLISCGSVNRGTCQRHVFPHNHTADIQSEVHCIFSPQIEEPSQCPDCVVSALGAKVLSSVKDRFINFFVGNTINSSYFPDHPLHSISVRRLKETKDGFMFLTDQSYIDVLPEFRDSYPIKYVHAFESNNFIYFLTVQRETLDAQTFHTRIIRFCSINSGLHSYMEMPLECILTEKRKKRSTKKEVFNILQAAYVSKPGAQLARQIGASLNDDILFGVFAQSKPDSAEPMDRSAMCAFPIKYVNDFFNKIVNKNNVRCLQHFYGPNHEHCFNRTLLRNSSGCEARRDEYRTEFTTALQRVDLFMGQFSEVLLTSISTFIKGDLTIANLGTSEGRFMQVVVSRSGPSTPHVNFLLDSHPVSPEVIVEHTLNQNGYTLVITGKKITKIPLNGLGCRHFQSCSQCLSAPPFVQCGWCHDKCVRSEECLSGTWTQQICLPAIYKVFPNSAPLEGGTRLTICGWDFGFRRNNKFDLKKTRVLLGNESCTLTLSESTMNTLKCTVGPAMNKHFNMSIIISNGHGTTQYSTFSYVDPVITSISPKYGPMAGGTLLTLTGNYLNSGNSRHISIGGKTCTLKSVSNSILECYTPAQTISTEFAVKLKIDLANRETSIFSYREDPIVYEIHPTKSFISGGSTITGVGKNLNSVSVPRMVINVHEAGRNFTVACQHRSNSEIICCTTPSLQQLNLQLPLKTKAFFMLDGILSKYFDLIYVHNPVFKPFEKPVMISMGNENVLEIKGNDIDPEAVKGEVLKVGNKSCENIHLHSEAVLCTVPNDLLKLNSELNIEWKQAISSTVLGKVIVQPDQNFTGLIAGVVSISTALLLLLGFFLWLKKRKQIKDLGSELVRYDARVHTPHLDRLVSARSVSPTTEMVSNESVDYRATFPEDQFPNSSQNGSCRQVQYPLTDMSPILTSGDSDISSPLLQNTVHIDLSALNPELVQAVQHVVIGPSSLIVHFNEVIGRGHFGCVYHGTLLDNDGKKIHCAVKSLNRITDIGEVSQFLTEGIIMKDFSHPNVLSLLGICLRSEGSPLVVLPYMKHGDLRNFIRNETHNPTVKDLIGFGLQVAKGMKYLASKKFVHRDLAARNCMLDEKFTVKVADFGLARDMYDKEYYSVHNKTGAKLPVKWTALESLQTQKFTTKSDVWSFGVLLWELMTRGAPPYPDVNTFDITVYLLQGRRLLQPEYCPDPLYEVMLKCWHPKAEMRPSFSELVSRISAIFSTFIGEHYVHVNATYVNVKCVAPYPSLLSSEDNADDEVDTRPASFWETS
Phosphatidylinositol 4,5-bisphosphate 3-kinase catalytic subunit beta isoform (Homo sapiens), sequence (P42338 whole entry, looked up, the tested form may be a part, canonical isoform): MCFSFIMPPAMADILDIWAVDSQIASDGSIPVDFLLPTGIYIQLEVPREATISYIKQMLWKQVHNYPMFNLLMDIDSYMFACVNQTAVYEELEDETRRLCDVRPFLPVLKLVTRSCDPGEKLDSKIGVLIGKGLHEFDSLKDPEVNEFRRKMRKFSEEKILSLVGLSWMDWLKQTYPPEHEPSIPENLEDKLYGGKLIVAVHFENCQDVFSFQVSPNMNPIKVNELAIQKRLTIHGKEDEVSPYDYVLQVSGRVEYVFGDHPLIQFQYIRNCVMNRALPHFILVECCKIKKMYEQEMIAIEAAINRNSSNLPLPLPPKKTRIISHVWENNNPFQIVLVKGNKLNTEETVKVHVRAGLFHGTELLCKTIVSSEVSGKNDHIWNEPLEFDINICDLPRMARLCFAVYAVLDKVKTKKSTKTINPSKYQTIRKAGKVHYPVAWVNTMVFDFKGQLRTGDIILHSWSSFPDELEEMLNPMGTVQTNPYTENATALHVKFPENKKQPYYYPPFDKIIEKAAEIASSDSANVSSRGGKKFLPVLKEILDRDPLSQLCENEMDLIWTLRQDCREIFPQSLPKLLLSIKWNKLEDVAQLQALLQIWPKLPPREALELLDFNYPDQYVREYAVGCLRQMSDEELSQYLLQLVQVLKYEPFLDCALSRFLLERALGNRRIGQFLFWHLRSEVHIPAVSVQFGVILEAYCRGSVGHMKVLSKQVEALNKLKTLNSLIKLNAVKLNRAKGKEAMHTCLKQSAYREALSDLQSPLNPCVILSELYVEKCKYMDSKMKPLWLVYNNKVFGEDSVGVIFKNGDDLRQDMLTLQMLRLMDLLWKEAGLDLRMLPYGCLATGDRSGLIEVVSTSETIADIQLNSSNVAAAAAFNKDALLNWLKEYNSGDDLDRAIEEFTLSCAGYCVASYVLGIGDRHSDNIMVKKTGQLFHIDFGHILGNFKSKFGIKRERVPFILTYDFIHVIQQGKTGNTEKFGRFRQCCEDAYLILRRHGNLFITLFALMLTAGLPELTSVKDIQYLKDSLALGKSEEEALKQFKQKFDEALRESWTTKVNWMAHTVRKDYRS

For `Nc1cnc(N2CCc3cc(S(=O)(=O)Nc4c(F)cc(Cl)cc4F)cc(N4CCCC4=O)c32)nc1` [TP-020n], the % of control [1] was 100%.

With `Cn1cc(-n2cnc3c(NCc4nc5cc(Cl)c(Cl)cc5[nH]4)nc(N4CCOCC4)nc32)cn1` the % of inhibition [2] was -11.2%.

`Cc1cc(CN)cc(C)c1-c1ncn(C)c1-c1cncn1C` gave a dTagg [3] of 0.3 K.

In the case of `CNC(=O)Nc1ccc(-c2nc(N3CC4CCC(C3)O4)c3cnn(C4CCC5(CC4)OCCO5)c3n2)cc1`, the % of inhibition [4] is reported as 9%.

`CN(C)C/C=C/C(=O)Nc1ccc(C(=O)N2CCCC(Nc3ncc(Cl)c(-c4c[nH]c5ccccc45)n3)C2)cc1` (configuration not stated) showed a % of control [5] of 84%, a % of control [6] of 69% and a % of control [7] of 69%.
